# In article PMC9221371, “Flavonoid Derivatives as Potential Cholinesterase Inhibitors in Scopolamine-Induced Amnesic Mice: An In Vitro, In Vivo and Integrated Computational Approach” (Brain Sciences, 2022):
# Like-named read-outs stand apart in the source and are kept apart here.
# What was measured:
# [1] = tested on: brains of scopolamine-induced amnesic mice; assay: Antioxidant enzyme activities and oxidative stress markers in brain homogenate; type: in vivo, Balb/C mice; details: for GSH / MDA: n = 8
# Experimental: (§1) The animals in the control (normal) and scopolamine amnesic groups were administered vehicle (Tween-80, 2%) only. Treated animals received F1–F5 suspended in Tween-80 (2%) p.o. at their respective doses for a period of 4 weeks. […] For assessing behavioral effects using the Y-Maze Paradigm and novel object discrimination (NOD) task, scopolamine (1 mg/kg, i.p.) was given to the different groups, 30 min after the respective treatments, to induce memory impairment (amnesia) in mice. All of the tests were performed between 8:00 a.m. and 6:00 p.m. to avoid sham results in the performance of the animals.
# (§2) The brain was extracted, and a homogenate (10% w/v) in 0.1 M of phosphate buffer (pH 7.4) was prepared by centrifugation for the assessment of brain oxidative status and estimating brain acetylcholinesterase activity. Catalase (CAT), superoxide dismutase (SOD), glutathione (GSH) and level of lipid peroxidation (malondialdehyde, MDA) were quantified as oxidative stress markers.
# [2] = tested on: scopolamine-induced amnesic mice; assay: Y-Maze Paradigm, spontaneous alternation in scopolamine-induced amnesic model; type: in vivo, Balb/C mice; details: for Spontaneous Alternation Performance: scopolamine 1 mg/kg i.p., n = 8
# From the text: (§3) For assessment of acute toxicity of the flavones (F1–F5), animals (21 in number) were divided into groups of 3 animals each. The reported protocols by Lorke were followed with slight modification to perform tests in two phases. In the first phase, one (control) group of animals were given Tween-80 (2%), and oral doses of F1–F5 were given to the remaining groups, respectively, at various doses (mg/kg body weight). […] The animals were housed in plastic cages. After two weeks, the animals were sacrificed by euthanasia with isoflurane in a humane manner for assessment of the effects on total weight and weight of the vital organs. The biochemical parameters of blood and histological studies of vital organs (kidney and liver tissue) were also assessed. […] The preliminary pharmacological activity was assessed at various dose concentrations of F1–F5 (2.5–20 mg/kg b.w.) to determine the effective dose for assessment of cognitive function using animal models.
# as §1
# (§4) Behavioral tasks on the Y-Maze Paradigm and “NOD” tasks were conducted in the 5th week of study to determine learning and memory functions. The apparatus arena was cleaned with 70% ethanol during the inter-trial interval to prevent a confounding error due to the influence of odor [20, 21].
# The Y-Maze task is a non-invasive and reliable behavioral test that was used for memory assessment of spontaneous alternation for F1–F5 based on previously reported protocols. A single session of Y-Maze was used to record the spontaneous alternation behavior of the animals to determine exploratory behavior and instant memory functioning. The apparatus was made of three arms in a “Y” shape (35 cm × 8 cm × 15 cm) with an equilateral triangular central area. In brief, each of the mice, previously naive to the maze, was placed at the terminal end of one arm. The animals were allowed to move and explore freely for 8 min through the maze. The number of arm entries was noted. One arm entry was considered when the hind paws of the animal were completely placed inside the arm, and the series of arm entries were documented. The spontaneous alternation in percent was calculated.
# Balb/C mice = assay: Acute toxicity study; type: in vivo; details: n = 3; for ALP / AST / Creatinine / Glucose / Total Cholesterol / Triglyceride: blood; for Kidney Weight / Liver Weight / Total Weight: mice
# From the text: Two weeks before the experiment, the animals were acclimatized to laboratory conditions.
# as §3
# [3] = biological target: T1, BuChE (equine serum lyophilized) (Equus caballus, UniProt P81908); assay: biochemical; details: triplicate; read-out: BChE IC50 (converted)
# T1 construct: purchased Sigma-Aldrich (Taufkirchen, Germany); host or cells: equine serum
# T1 sequence (P81908 whole entry): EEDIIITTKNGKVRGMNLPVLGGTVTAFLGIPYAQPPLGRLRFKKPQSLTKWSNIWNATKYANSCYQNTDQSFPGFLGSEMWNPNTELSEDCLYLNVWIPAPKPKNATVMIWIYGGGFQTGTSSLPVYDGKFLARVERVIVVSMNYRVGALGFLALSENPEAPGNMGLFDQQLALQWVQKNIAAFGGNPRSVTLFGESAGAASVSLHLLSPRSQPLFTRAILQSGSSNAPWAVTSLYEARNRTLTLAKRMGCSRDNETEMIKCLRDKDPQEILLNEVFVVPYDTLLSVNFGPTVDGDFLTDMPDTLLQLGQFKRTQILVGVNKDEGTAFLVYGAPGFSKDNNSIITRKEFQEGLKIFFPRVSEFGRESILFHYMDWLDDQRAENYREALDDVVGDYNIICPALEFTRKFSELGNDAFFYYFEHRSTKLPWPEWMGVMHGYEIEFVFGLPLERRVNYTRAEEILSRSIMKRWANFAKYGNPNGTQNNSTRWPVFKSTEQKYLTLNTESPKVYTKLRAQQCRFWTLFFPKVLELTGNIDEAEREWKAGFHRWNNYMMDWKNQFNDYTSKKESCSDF
# Experimental: (§5) Synthetic flavonoids F1–F5 previously synthesized by our group were used in the study.
# (§6) For the determination of acetylcholinesterase inhibitory potentials, AChE and BuChE were used. […] To the tube were added DTNB (100 µL) and buffer (2.4 mL). The tube was incubated at 25 °C for 5 min as pre-incubation. The reaction was started by adding ATChI (40 µL), and the mixture was incubated at 25 °C for 20 min. The absorbance at 412 nm was measured spectrophotometrically in triplicate. […] The data were recorded in triplicate, and IC50 was calculated.
# [4] = biological target: T2, AChE (electric eel type-VI-S) (Electrophorus electricus, UniProt O42275); assay: biochemical; details: 25 °C, triplicate
# T2 construct: purchased Sigma-Aldrich (Taufkirchen, Germany)
# T2 sequence (O42275 24-633): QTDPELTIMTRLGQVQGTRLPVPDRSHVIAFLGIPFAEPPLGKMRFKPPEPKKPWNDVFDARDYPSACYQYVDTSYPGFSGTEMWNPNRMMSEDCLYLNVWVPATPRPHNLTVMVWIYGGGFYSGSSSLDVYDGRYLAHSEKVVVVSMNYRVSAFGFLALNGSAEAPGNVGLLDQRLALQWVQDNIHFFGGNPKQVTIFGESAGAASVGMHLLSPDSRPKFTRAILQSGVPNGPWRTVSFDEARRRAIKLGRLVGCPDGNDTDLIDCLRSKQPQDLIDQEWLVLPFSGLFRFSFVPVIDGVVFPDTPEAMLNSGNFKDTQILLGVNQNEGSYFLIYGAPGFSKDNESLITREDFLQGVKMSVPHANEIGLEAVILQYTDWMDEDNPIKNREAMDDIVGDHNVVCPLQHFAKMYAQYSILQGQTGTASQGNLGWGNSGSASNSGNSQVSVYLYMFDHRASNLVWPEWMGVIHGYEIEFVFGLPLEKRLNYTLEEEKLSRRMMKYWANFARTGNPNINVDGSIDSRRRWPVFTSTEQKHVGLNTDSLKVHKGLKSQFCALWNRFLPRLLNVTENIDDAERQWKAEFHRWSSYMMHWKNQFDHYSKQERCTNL
# Experimental: as §5, §6
# [5] = tested on: scopolamine-induced amnesic mice; assay: Novel object discrimination (NOD) task in scopolamine-induced amnesic model; type: in vivo, Balb/C mice; details: scopolamine 1 mg/kg i.p., n = 8
# Experimental: as §1, §4
# Animals were challenged for the novel object discrimination task for F1–F5 as per previously reported protocols. After habituation and acclimatization, animals in each group had two consecutive object exploration trials (5 min each) for this test, with a break of 4 h in between two trials. In the familiarization phase (sample), the animals were challenged to explore two objects similar to each other. In the second phase (test), any of the two objects was changed by a new object. Exploration time in sec for the objects, including chewing, licking, sniffing or pointing the vibrissae of nose towards the object, was recorded. The discrimination ratio (%DI) was then determined using:(T novel object − T familiar object)/(T novel object + T familiar object) × 100(1)
# [6] = biological target: T3, brain acetylcholinesterase (Mus musculus, UniProt P21836); type: in vivo; parameters: unit not given here; details: brain homogenate, n = 8
# T3 construct: The brain was extracted, and a homogenate (10% w/v) in 0.1 M of phosphate buffer (pH 7.4) was prepared; from tissue; host or cells: mouse brain homogenate
# T3 sequence (P21836 32-614): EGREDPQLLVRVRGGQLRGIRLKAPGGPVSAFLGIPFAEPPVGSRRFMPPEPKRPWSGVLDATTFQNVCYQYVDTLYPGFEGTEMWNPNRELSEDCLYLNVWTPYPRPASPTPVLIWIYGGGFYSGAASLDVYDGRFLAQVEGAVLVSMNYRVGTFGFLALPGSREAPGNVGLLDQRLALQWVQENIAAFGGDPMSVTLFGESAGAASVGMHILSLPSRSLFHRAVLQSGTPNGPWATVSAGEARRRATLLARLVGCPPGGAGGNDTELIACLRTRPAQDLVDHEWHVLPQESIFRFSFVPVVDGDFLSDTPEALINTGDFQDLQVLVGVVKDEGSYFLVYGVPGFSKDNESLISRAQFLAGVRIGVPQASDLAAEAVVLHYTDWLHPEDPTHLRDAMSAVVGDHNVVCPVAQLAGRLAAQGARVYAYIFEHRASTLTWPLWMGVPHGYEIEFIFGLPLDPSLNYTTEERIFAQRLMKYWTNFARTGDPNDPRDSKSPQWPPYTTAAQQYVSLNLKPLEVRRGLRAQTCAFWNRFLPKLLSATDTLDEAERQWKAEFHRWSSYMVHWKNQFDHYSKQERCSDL
# Experimental: as §1, §2
# [7] = 7.5 mg/kg b.w., n = 8, 7.5 mg/kg
smiles,measurement,setting,value
O=c1cc(-c2cc(Cl)ccc2Cl)oc2ccccc12 [Compound F5],GSH,[1]; 7.5 mg/kg b.w.,37.28 ± 1.60 μg/mg of Protein
same,MDA,[1]; 7.5 mg/kg b.w.,14.98 ± 1.22 nmol/mg Protein
same,CAT,[1]; [7],24.18 ± 1.41 U/mg of Protein
same,SOD,[1]; [7],9.88 ± 1.49 U/mg of Protein
same,GSH,[1]; 15 mg/kg b.w.,39.01 ± 1.39 μg/mg of Protein
same,MDA,[1]; 15 mg/kg b.w.,14.48 ± 1.38 nmol/mg Protein
same,CAT,"[1]; 15 mg/kg b.w., n = 8, 15 mg/kg",24.91 ± 1.29 U/mg of Protein
same,SOD,"[1]; 15 mg/kg b.w., n = 8, 15 mg/kg",10.20 ± 1.62 U/mg of Protein
same,Spontaneous Alternation Performance,[2]; 7.5 mg/kg b.w. p.o. 4 weeks,67.94 ± 1.51%
same,Spontaneous Alternation Performance,[2]; 15 mg/kg b.w. p.o. 4 weeks,73.11 ± 1.63%
same,"Spontaneous alternation performance (preliminary, selection of doses)","[2]; Table S1, dose 2.5 mg/kg b.w.",38.63±1.78
same,"Spontaneous alternation performance (preliminary, selection of doses)","[2]; Table S1, dose 5 mg/kg b.w.",43.87±1.94
same,"Spontaneous alternation performance (preliminary, selection of doses)","[2]; Table S1, dose 7.5 mg/kg b.w.",66.53±1.89
same,"Spontaneous alternation performance (preliminary, selection of doses)","[2]; Table S1, dose 10 mg/kg b.w.",66.97±1.72
same,"Spontaneous alternation performance (preliminary, selection of doses)","[2]; Table S1, dose 12.5 mg/kg b.w.",67.33±2.05
same,ALP,Balb/C mice; 600 mg/kg b.w. oral,134.41 ± 2.81 U/L
same,AST,Balb/C mice; 600 mg/kg b.w. oral,108.37 ± 1.97 U/L
same,Creatinine,Balb/C mice; 600 mg/kg b.w. oral,0.28 ± 0.04 mg/dL
same,Glucose,Balb/C mice; 600 mg/kg b.w. oral,86.98 ± 2.12 mg/dL
same,Total Cholesterol,Balb/C mice; 600 mg/kg b.w. oral,102.91 ± 1.93 mg/dL
same,Triglyceride,Balb/C mice; 600 mg/kg b.w. oral,95.31 ± 2.61 mg/dL
same,Kidney Weight,Balb/C mice; 600 mg/kg b.w. oral,0.30 ± 0.21 g
same,Liver Weight,Balb/C mice; 600 mg/kg b.w. oral,1.24 ± 0.25 g
same,Total Weight,Balb/C mice; 600 mg/kg b.w. oral,20.97 ± 1.66 g
same,ALP,Balb/C mice; 1000 mg/kg b.w. oral,135.87 ± 2.24 U/L
same,AST,Balb/C mice; 1000 mg/kg b.w. oral,107.41 ± 2.03 U/L
same,Creatinine,Balb/C mice; 1000 mg/kg b.w. oral,0.35 ± 0.05 mg/dL
same,Glucose,Balb/C mice; 1000 mg/kg b.w. oral,87.01 ± 2.21 mg/dL
same,Total Cholesterol,Balb/C mice; 1000 mg/kg b.w. oral,103.02 ± 1.79 mg/dL
same,Triglyceride,Balb/C mice; 1000 mg/kg b.w. oral,96.08 ± 2.01 mg/dL
same,Kidney Weight,Balb/C mice; 1000 mg/kg b.w. oral,0.31 ± 0.24 g
same,Liver Weight,Balb/C mice; 1000 mg/kg b.w. oral,1.22 ± 0.29 g
same,Total Weight,Balb/C mice; 1000 mg/kg b.w. oral,21.88 ± 1.89 g
same,ALP,Balb/C mice; 2000 mg/kg b.w. oral,133.91 ± 3.71 U/L
same,AST,Balb/C mice; 2000 mg/kg b.w. oral,108.39 ± 1.89 U/L
same,Creatinine,Balb/C mice; 2000 mg/kg b.w. oral,0.33 ± 0.06 mg/dL
same,Glucose,Balb/C mice; 2000 mg/kg b.w. oral,86.89 ± 1.98 mg/dL
same,Total Cholesterol,Balb/C mice; 2000 mg/kg b.w. oral,102.73 ± 2.10 mg/dL
same,Triglyceride,Balb/C mice; 2000 mg/kg b.w. oral,95.37 ± 1.98 mg/dL
same,Kidney Weight,Balb/C mice; 2000 mg/kg b.w. oral,0.29 ± 0.20 g
same,Liver Weight,Balb/C mice; 2000 mg/kg b.w. oral,1.26 ± 0.21 g
same,Total Weight,Balb/C mice; 2000 mg/kg b.w. oral,22.91 ± 1.67 g
same,ALP,Balb/C mice; 3000 mg/kg b.w. oral,134.02 ± 3.28 U/L
same,AST,Balb/C mice; 3000 mg/kg b.w. oral,107.76 ± 1.92 U/L
same,Creatinine,Balb/C mice; 3000 mg/kg b.w. oral,0.30 ± 0.04 mg/dL
same,Glucose,Balb/C mice; 3000 mg/kg b.w. oral,85.34 ± 2.01 mg/dL
same,Total Cholesterol,Balb/C mice; 3000 mg/kg b.w. oral,103.09 ± 1.83 mg/dL
same,Triglyceride,Balb/C mice; 3000 mg/kg b.w. oral,96.50 ± 2.05 mg/dL
same,Kidney Weight,Balb/C mice; 3000 mg/kg b.w. oral,0.30 ± 0.19 g
same,Liver Weight,Balb/C mice; 3000 mg/kg b.w. oral,1.23 ± 0.25 g
same,Total Weight,Balb/C mice; 3000 mg/kg b.w. oral,22.65 ± 1.91 g
same,IC50,[3],376 µM
same,IC50,[4],338 µM
same,discrimination index (%DI),[5]; 7.5 mg/kg b.w. p.o. 4 weeks,59.76 ± 1.24%
same,discrimination index (%DI),[5]; 15 mg/kg b.w. p.o. 4 weeks,62.12 ± 1.28%
same,level of AChE,[6]; 7.5 mg/kg b.w.,15.34 ± 0.69
same,level of AChE,[6]; 15 mg/kg b.w.,14.67 ± 0.67
